Data: patent US20220259193A1, “KCNT1 INHIBITORS AND METHODS OF USE” (Praxis Precision Medicines, Inc., priority 2019, published 2022)

Molecular target: T1, KCNT1 (KNa1.1, Slack) (Homo sapiens, UniProt Q5JUK3)
T1 construct: expressed in transfected cells; host or cells: HEK-TREX (tetracycline-inducible HEK cell line)
T1 sequence (Q5JUK3 1-1230): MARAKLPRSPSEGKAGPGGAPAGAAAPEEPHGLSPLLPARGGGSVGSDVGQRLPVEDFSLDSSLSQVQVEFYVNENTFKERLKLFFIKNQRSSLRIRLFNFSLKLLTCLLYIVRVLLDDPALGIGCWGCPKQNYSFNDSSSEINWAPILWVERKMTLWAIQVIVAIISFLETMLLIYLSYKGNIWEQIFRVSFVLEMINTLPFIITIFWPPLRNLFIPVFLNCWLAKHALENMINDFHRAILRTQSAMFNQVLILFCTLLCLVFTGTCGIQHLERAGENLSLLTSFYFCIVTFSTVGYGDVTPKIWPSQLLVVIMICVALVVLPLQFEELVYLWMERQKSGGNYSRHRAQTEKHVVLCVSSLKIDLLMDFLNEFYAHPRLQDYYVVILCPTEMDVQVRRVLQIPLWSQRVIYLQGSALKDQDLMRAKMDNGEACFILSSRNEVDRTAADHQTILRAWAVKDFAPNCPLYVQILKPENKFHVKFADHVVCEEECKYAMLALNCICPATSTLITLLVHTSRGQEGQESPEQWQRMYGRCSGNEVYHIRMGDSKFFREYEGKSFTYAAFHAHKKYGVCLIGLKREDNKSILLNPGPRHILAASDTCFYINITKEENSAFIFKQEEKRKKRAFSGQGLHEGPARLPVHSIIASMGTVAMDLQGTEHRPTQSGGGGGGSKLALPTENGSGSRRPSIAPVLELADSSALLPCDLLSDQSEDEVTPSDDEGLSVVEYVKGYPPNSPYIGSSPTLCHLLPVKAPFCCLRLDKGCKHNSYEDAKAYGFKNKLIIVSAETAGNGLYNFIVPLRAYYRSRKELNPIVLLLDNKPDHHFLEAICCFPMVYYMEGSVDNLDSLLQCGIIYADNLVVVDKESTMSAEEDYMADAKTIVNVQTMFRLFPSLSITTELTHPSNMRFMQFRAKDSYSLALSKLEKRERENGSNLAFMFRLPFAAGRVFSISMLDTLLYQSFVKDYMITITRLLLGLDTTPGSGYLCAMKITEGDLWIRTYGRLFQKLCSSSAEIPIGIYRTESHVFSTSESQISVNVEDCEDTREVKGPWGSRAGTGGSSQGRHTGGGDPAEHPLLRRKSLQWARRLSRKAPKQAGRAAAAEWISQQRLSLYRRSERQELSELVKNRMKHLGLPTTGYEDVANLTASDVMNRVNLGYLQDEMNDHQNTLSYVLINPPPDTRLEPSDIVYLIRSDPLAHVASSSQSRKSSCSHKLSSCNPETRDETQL
Test: KCNT1 patch clamp assay (SyncroPatch 384PE automated patch clamp)
Format: cell-based
Details: tetracycline inducible HEK-TREX cell line; perforated patch; step from −80 mV to 0 mV; room temperature; read-out: KCNT1-WT IC50
Outline: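 Tetracycline-inducible HEK-TREX cells; perforated-patch (10 μM escin) population recordings at room temperature, holding −80 mV with 100 ms step to 0 mV.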

Row | IC50 [nM] | SMILES
1 | ≥ 20000 | C[C@H](NC(=O)c1cc(C(F)(F)F)nn1C)c1nc(-c2nccc(C(F)(F)F)n2)no1 [Compound 237, (S)-1-methyl-3-(trifluoromethyl)-N-(1-(3-(4-(trifluoromethyl)pyrimidin-2-yl)-1,2,4-oxadiazol-5-yl)ethyl)-1H-pyrazole-5-carboxamide]
2 | ≤ 1000 | C[C@H](NC(=O)c1cc(C(F)F)nn1C)c1nc(-c2ccnc(C(F)(F)F)c2)no1 [Compound 238]
3 | ≤ 1000 | COCCn1nc(C(F)(F)F)cc1C(=O)N[C@@H](C)c1nc(-c2ccnc(C(F)(F)F)c2)no1 [Compound 239, (S)-1-(2-methoxyethyl)-3-(trifluoromethyl)-N-(1-(3-(2-(trifluoromethyl)pyridin-4-yl)-1,2,4-oxadiazol-5-yl)ethyl)-1H-pyrazole-5-carboxamide]
4 | ≤ 1000 | C[C@H](NC(=O)c1cc(C(F)(F)F)nn1C)c1nc(-c2ccnc(C3(C)CC3)c2)no1 [Compound 240, (S)-1-methyl-N-(1-(3-(2-(1-methylcyclopropyl)pyridin-4-yl)-1,2,4-oxadiazol-5-yl)ethyl)-3-(trifluoromethyl)-1H-pyrazole-5-carboxamide]
5 | ≤ 1000 | C[C@H](NC(=O)c1cc(C(F)(F)F)nn1Cc1ccccc1)c1nc(-c2ccnc(C(F)(F)F)c2)no1 [Compound 241, (S)-1-benzyl-3-(trifluoromethyl)-N-(1-(3-(2-(trifluoromethyl)pyridin-4-yl)-1,2,4-oxadiazol-5-yl)ethyl)-1H-pyrazole-5-carboxamide]
6 | 1000 to 20000 | C[C@H](NC(=O)c1cc(C(F)(F)F)nn1C)c1nc(-c2ccnc(C(F)(F)F)n2)no1 [Compound 242, (S)-1-methyl-3-(trifluoromethyl)-N-(1-(3-(2-(trifluoromethyl)pyrimidin-4-yl)-1,2,4-oxadiazol-5-yl)ethyl)-1H-pyrazole-5-carboxamide]
7 | ≤ 1000 | C[C@H](NC(=O)c1cc(C(F)(F)F)nn1CCN(C)C)c1nc(-c2ccnc(C(F)(F)F)c2)no1 [Compound 243, (S)-1-(2-(dimethylamino)ethyl)-3-(trifluoromethyl)-N-(1-(3-(2-(trifluoromethyl)pyridin-4-yl)-1,2,4-oxadiazol-5-yl)ethyl)-1H-pyrazole-5-carboxamide]
8 | 1000 to 20000 | Cc1nn(C)c(C(=O)N[C@@H](C)c2nc(-c3ccnc(C(F)(F)F)c3)no2)c1C [Compound 244]
9 | 1000 to 20000 | CCOCc1cc(-c2noc([C@H](C)NC(=O)c3cc(C(F)(F)F)nn3C)n2)ccn1 [Compound 245, (S)—N-(1-(3-(2-(ethoxymethyl)pyridin-4-yl)-1,2,4-oxadiazol-5-yl)ethyl)-1-methyl-3-(trifluoromethyl)-1H-pyrazole-5-carboxamide]
10 | ≤ 1000 | C[C@H](NC(=O)c1cc(C(F)(F)F)nn1Cc1ccncc1)c1nc(-c2ccnc(C(F)(F)F)c2)no1 [Compound 246, (S)-1-(pyridin-4-ylmethyl)-3-(trifluoromethyl)-N-(1-(3-(2-(trifluoromethyl)pyridin-4-yl)-1,2,4-oxadiazol-5-yl)ethyl)-1H-pyrazole-5-carboxamide]
11 | ≤ 1000 | CC[C@H](NC(=O)OC(C)(C)C)c1nc(-c2ccnc(C3CC3)c2)no1 [Compound 247, tert-butyl (S)-(1-(3-(2-cyclopropylpyridin-4-yl)-1,2,4-oxadiazol-5-yl)propyl)carbamate]
12 | ≤ 1000 | CC[C@H](NC(=O)c1cc(C(F)(F)F)nn1C)c1nc(-c2ccnc(C3CC3)c2)no1 [Compound 248, (S)—N-(1-(3-(2-cyclopropylpyridin-4-yl)-1,2,4-oxadiazol-5-yl)propyl)-1-methyl-3-(trifluoromethyl)-1H-pyrazole-5-carboxamide]
13 | ≤ 1000 | C[C@H](NC(=O)c1cc(C(F)(F)F)nn1CC(=O)N1CCCC1)c1nc(-c2ccnc(C(F)(F)F)c2)no1 [Compound 249, (S)-1-(2-oxo-2-(pyrrolidin-1-yl)ethyl)-3-(trifluoromethyl)-N-(1-(3-(2-(trifluoromethyl)pyridin-4-yl)-1,2,4-oxadiazol-5-yl)ethyl)-1H-pyrazole-5-carboxamide]
14 | 1000 to 20000 | C[C@H](NC(=O)c1cc(C(F)(F)F)nn1CC(=O)N(C)C)c1nc(-c2ccnc(C(F)(F)F)c2)no1 [Compound 251, (S)-1-(2-(dimethylamino)-2-oxoethyl)-3-(trifluoromethyl)-N-(1-(3-(2-(trifluoromethyl)pyridin-4-yl)-1,2,4-oxadiazol-5-yl)ethyl)-1H-pyrazole-5-carboxamide]
15 | 1000 to 20000 | Cc1cc(C(=O)N[C@@H](C)c2nc(-c3ccnc(C(F)(F)F)c3)no2)n(C)n1 [Compound 252]
16 | ≤ 1000 | C[C@H](NC(=O)c1cc(C(F)(F)F)nn1Cc1cccnc1)c1nc(-c2ccnc(C(F)(F)F)c2)no1 [Compound 253, (S)-1-(pyridin-3-ylmethyl)-3-(trifluoromethyl)-N-(1-(3-(2-(trifluoromethyl)pyridin-4-yl)-1,2,4-oxadiazol-5-yl)ethyl)-1H-pyrazole-5-carboxamide]
17 | 1000 to 20000 | C[C@H](NC(=O)c1cc(C(F)(F)F)nn1C)c1nc(-c2ccnc(COC3CC3)c2)no1 [Compound 254, (S)—N-(1-(3-(2-(cyclopropoxymethyl)pyridin-4-yl)-1,2,4-oxadiazol-5-yl)ethyl)-1-methyl-3-(trifluoromethyl)-1H-pyrazole-5-carboxamide]
18 | ≤ 1000 | C[C@H](NC(=O)c1cc(C(F)(F)F)nn1CCN1CCCC1)c1nc(-c2ccnc(C(F)(F)F)c2)no1 [Compound 257, (S)-1-(2-(pyrrolidin-1-yl)ethyl)-3-(trifluoromethyl)-N-(1-(3-(2-(trifluoromethyl)pyridin-4-yl)-1,2,4-oxadiazol-5-yl)ethyl)-1H-pyrazole-5-carboxamide]
19 | 1000 to 20000 | C[C@H](NC(=O)c1cc(C(F)(F)F)nn1C)c1nc(-c2ccnc(CO)c2)no1 [Compound 258, N-[(1S)-1-[3-[2-(hydroxymethyl)-4-pyridyl]-1,2,4-oxadiazol-5-yl]ethyl]-2-methyl-5-(trifluoromethyl)pyrazole-3-carboxamide]
20 | 1000 to 20000 | CC(C)OCc1cc(-c2noc([C@H](C)NC(=O)c3cc(C(F)(F)F)nn3C)n2)ccn1 [Compound 259, N-[(1S)-1-[3-[2-(isopropoxymethyl)-4-pyridyl]-1,2,4-oxadiazol-5-yl]ethyl]-2-methyl-5-(trifluoromethyl)pyrazole-3-carboxamide]
21 | ≥ 20000 | C[C@H](NC(=O)c1cc(C(F)(F)F)nn1C)c1nc(-c2ccnc(CN(C)C)c2)no1 [Compound 260, (S)—N-(1-(3-(2-((dimethylamino)methyl)pyridin-4-yl)-1,2,4-oxadiazol-5-yl)ethyl)-1-methyl-3-(trifluoromethyl)-1H-pyrazole-5-carboxamide]
22 | ≥ 20000 | C[C@H](NC(=O)c1cc(C(F)(F)F)nn1C)c1nc(-c2ccnc(CN3CCCC3)c2)no1 [Compound 261, (S)-1-methyl-N-(1-(3-(2-(pyrrolidin-1-ylmethyl)pyridin-4-yl)-1,2,4-oxadiazol-5-yl)ethyl)-3-(trifluoromethyl)-1H-pyrazole-5-carboxamide]
23 | 1000 to 20000 | COC1(c2cc(-c3noc([C@H](C)NC(=O)OC(C)(C)C)n3)ccn2)CC1 [Compound 262, tert-butyl (S)-(1-(3-(2-(1-methoxycyclopropyl)pyridin-4-yl)-1,2,4-oxadiazol-5-yl)ethyl)carbamate]
24 | 1000 to 20000 | COC1(c2cc(-c3noc([C@H](C)NC(=O)c4cc(C(F)(F)F)nn4C)n3)ccn2)CC1 [Compound 263, (S)—N-(1-(3-(2-(1-methoxycyclopropyl)pyridin-4-yl)-1,2,4-oxadiazol-5-yl)ethyl)-1-methyl-3-(trifluoromethyl)-1H-pyrazole-5-carboxamide]
25 | ≥ 20000 | C[C@H](NC(=O)c1cc(C(F)(F)F)nn1C)c1nc(-c2ccnc(CS(C)(=O)=O)c2)no1 [Compound 264, 2-methyl-N-[(1S)-1-[3-[2-(methylsulfonylmethyl)-4-pyridyl]-1,2,4-oxadiazol-5-yl]ethyl]-5-(trifluoromethyl)pyrazole-3-carboxamide]
